Measurements as given in patent US20240423962A1, “FASCIN BINDING COMPOUNDS FOR SPINOGENESIS” (Spinogenix, Inc., priority 2018, published 2024).

How the values were obtained:
fascin = fascin (Homo sapiens, UniProt Q16658); settings: cited from earlier work
[1] = tested on: primary mouse cortical neurons; assay: Synaptic density of primary mouse cortical neurons (synaptophysin P38 puncta), FIG. 6; assay type: cell-based; settings: luM, 24 hours of treatment
Procedure: The effect of the indicated compounds on the synaptic density of primary mouse cortical neurons was determined after 24 hours of treatment. FIG. 6. Primary mouse cortical neurons were treated on day 15 in vitro with fascin-inhibiting small molecules at luM, or with vehicle (DMSO). After 24 hours of treatment, neurons were fixed, immunolabeled for a protein component of synapses, the presynaptic vesicle protein, synaptophysin (P38), and then stained with the nuclear dye DAPI. Immunolabeled neurons were imaged on a Leica confocal microscope. The numbers of P38-immunopositive puncta were analyzed using FUI with the Squash plugin.

SMILES: O=C(Nc1nn(Cc2ccc(C(F)(F)F)cc2)c2ccccc12)c1ccco1 [compound 1, N-(1-(4-(trifluoromethyl)benzyl)-1H-indazol-3-yl)furan-2-carboxamide]
- Fascin binding site (fascin; FIG. 5): bind to fascin at binding site 2
- Effect of binding on actin-binding sites of fascin (fascin): opens actin-binding site 2 and closes actin-binding site 1
- Spine density compared to comparative compounds [1]: increase spine density more than comparative compounds 1 and 7
- Spine density compared to control ([1]; vs vehicle (DMSO)): increase spine density compared to control
